From US5405869A, “Anti-tumor platinum complexes” (Istituto Nazionale per la Ricerca sul Cancro, priority 1991, dated 1995) come the findings set out here.

In one assay the test system is leukemia cells K562. Particulars: read-out: ID50; K562, incorporation of tritiated thymidine at 48 hours. The procedure: (§1) The evaluation of the cytotoxic activities of the compounds (1) was carried out "in vitro" measuring, according to known methods, the inhibition of the colony formation, the cell viability (Trypan blu) and the incorporation of tritiated thymidine in tumoral and normal cells.

The subject of a further assay is leukemia cells Jurkat. Particulars: read-out: ID50, incorporation of tritiated thymidine at 48 hours. As to the method: as §1
The test system of the next assay is leukemia cells P388. The note with it: read-out: ID50; P388, incorporation of tritiated thymidine at 48 hours. The procedure: as §1

Consider “cis-diamino-chloro-(4-amino)benzoate-platinum(II) hydrochloride [Compound 1A]”, for which the IC50 is 26.3 µM in the assay on leukemia cells K562, 21.3 µM in the assay on leukemia cells Jurkat and 11.4 µM in the assay on leukemia cells P388.
